Tested on: SARS-CoV-2 (USA-WA1/2020/NR-52281)
Experiment: Live native virus infection of A549-hACE2 versus A549-hACE2/TMPRSS2 cells
Assay type: cell-based
Details: virus 1 h, then compound

| Compound | efficacy against live virus upon overexpression of TMPRSS2 |
| --- | --- |
| CCOC(=O)C=CC(CC1CCNC1=O)NC(=O)C(Cc1ccccc1)NC(=O)C(Cc1ccc(F)cc1)NC(=O)OC(C)(C)C (centres unmarked) [SM142] | only a partial loss in efficacy |
| CCOC(=O)C=CC(CC1CCNC1=O)NC(=O)C(Cc1ccccc1)NC(=O)C(N)Cc1ccccc1 (centres unmarked) [SM141] | only a partial loss in efficacy |
